Experimental data: patent EP4786487A1, “PEPTIDE” (Peptidream Inc, priority 2023, dated 2025)
Like-named read-outs stand apart in the source and are kept apart here. Starred links: 1 amine or outer side, 2 acyl side, 3 side chain; linkers in the order of their positions; H or OH if unused. Positions of bridges follow the written chain, without caps; N, C: chain ends. Non-standard residues stand in square brackets, D forms with d. Residues, ends and D or L forms follow the SMILES beside them. *: point of attachment. X10 = O=C([C@H](Cc1cn(Cc2ccccc2)c2ccccc12)N[*:1])[*:2]; Phe(3-OCH2COOH) = N[C@@H](Cc1cccc(OCC(=O)O)c1)C(=O)O; NMePhe(3-Ph) = CN[C@@H](Cc1cccc(-c2ccccc2)c1)C(=O)O; X2 = CC(=O)N1CCC(C[C@@H](C(=O)[*:2])N(C)[*:1])CC1; Phe(4-COOH) = N[C@@H](Cc1ccc(C(=O)O)cc1)C(=O)O; NMePhe(4-Cl) = CN[C@@H](Cc1ccc(Cl)cc1)C(=O)O; Piperazinyl(4-CH2COOH) = O=C(O)CN1CCN(*)CC1; NMe2Nal = CN[C@@H](Cc1ccc2ccccc2c1)C(=O)O; NMeY = CN[C@@H](Cc1ccc(O)cc1)C(=O)O; X1 = CCCCCCC[C@H](N[*:1])C(=O)[*:2]; NMeF = CN[C@@H](Cc1ccccc1)C(=O)O; NMeE = CN[C@@H](CCC(=O)O)C(=O)O; NMeA = CN[C@@H](C)C(=O)O; Propyl(3-NH2) = NCCC*; Sar = CNCC(=O)O

Experiments:
GDF-11 = biological target: T1, GDF-11 (Homo sapiens, UniProt O95390); assay: HepG2 reporter gene assay, Evaluation Procedure (2): 2-concentrations assay, GDF-11 inhibition; assay type: cell-based; conditions: for inhibition at 0.03 µM: HepG2, peptide 30nM, read-out: GDF11 Inhibition 30nM; for inhibition at 0.03 µM / inhibition at 0.1 µM: GDF-11 10 ng/mL; for inhibition at 0.1 µM: HepG2, peptide 100nM, read-out: GDF11 Inhibition 100nM; for inhibition: read-out: inhibition rate (GDF-11 inhibition assay)
T1 construct: purchased R&D systems 1958-GD-G8/CF
T1 sequence (O95390 299-407): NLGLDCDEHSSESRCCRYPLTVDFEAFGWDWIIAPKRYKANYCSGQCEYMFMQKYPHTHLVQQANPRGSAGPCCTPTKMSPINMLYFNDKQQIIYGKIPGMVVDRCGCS
In short: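 HepG2 cells carrying the transfected pGL3(CAGA)12-luc reporter, a pGL3 vector with luciferase placed downstream of 12 CAGA repeats, were stimulated with GDF-11 at a final 10 ng/mL together with test peptide. Blank wells received no GDF-11 and no peptide. Plates were incubated 20 to 24 hours at 37°C with 5% CO2. Luminescence from One-Glo substrate was read to calculate percent inhibition.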

Myostatin = biological target: T2, Myostatin (Homo sapiens, UniProt O14793); assay: HepG2 reporter gene assay, Evaluation Procedure (2): 2-concentrations assay, myostatin inhibition; assay type: cell-based; conditions: HepG2
T2 construct: active myostatin (also called mature myostatin) is a homodimer consisting of two C-terminal growth factor domains; purchased R&D systems 788-G8/CF
T2 sequence (O14793 267-375): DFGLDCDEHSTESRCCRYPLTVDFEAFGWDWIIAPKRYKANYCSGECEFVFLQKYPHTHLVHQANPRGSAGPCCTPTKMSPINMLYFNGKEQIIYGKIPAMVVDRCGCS
In short: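 HepG2 cells (HB-8065, ATCC) carrying the transfected pGL3(CAGA)12-luc reporter plasmid were treated with myostatin (788-G8/CF, R&D systems) at a final concentration of 10 ng/mL plus peptide and incubated at 37°C, 5% CO2 for 20 to 24 hours. Luminescence was read after adding PBS mixed 1:1 with One-Glo substrate, and inhibition rate was calculated.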

[1] = peptide 30nM, Myostatin 10 ng/mL, read-out: Myostatin Inhibition 30nM
[2] = peptide 100nM, Myostatin 10 ng/mL, read-out: Myostatin Inhibition 100nM
[3] = HepG2, first GDF-11 column of Table 7-3/7-4, GDF-11 10 ng/mL, peptide at the lower of the 2 concentrations
[4] = HepG2, second GDF-11 column of Table 7-3/7-4, GDF-11 10 ng/mL, peptide at the higher of the 2 concentrations
[5] = Table 7-3/7-4, myostatin 10 ng/mL, peptide at the higher of the 2 concentrations, read-out: inhibition rate (myostatin inhibition assay)
[6] = Table 7-3/7-4, myostatin 10 ng/mL, peptide at the lower of the 2 concentrations, read-out: inhibition rate (myostatin inhibition assay)

Compound | inhibition at 0.03 µM (GDF-11) | inhibition at 0.1 µM (GDF-11) | inhibition at 0.03 µM (Myostatin; [1]) | inhibition at 0.1 µM (Myostatin; [2]) | inhibition (GDF-11; [3]) | inhibition (GDF-11; [4]) | inhibition at 0.1 µM (Myostatin; [5]) | inhibition at 0.03 µM (Myostatin; [6])
CCCCCCC[C@@H]1NC(=O)[C@H](Cc2ccccc2)N(C)C(=O)[C@H](CCCNC(=N)N)NC(=O)[C@H](Cc2ccc(C(=O)O)cc2)NC(=O)[C@H](Cc2cccc(OCC(=O)O)c2)NC(=O)CN(C)C(=O)[C@H]([C@@H](C)CC)NC(=O)[C@H](Cc2ccc(OCCCN)cc2)N(C)C(=O)[C@H](Cc2ccc(O)cc2)NC(=O)[C@H](Cc2c[nH]c3ccccc23)NC(=O)[C@H](C)NC(=O)[C@H](C)NC(=O)CSC[C@H](C(=O)N2CCN(CC(=O)O)CC2)NC(=O)[C@H](Cc2ccccc2)N(C)C(=O)[C@H](C)N(C)C1=O [Myostatin_99_v302] ({CH2CO}-AAWY[NMeY](Propyl(3-NH2))I[Sar][Phe(3-OCH2COOH)][Phe(4-COOH)]R[NMeF][X1][NMeA][NMeF][dC]-{Piperazinyl(4-CH2COOH)}; thioether N-15) | 0% | 0% | 99% | 100% | – | – | – | –
CCCCCCC[C@@H]1NC(=O)[C@H](Cc2ccccc2)N(C)C(=O)[C@H](CCCNC(=N)N)NC(=O)[C@H](Cc2ccc(C(=O)O)cc2)NC(=O)[C@H](Cc2cccc(OCC(=O)O)c2)NC(=O)CN(C)C(=O)[C@H]([C@@H](C)CC)NC(=O)[C@H](CC2CCN(C(C)=O)CC2)N(C)C(=O)[C@H](Cc2ccc(O)cc2)NC(=O)[C@H](Cc2c[nH]c3ccccc23)NC(=O)[C@H](C)NC(=O)[C@H](C)NC(=O)CSC[C@H](C(=O)N2CCN(CC(=O)O)CC2)NC(=O)[C@H](Cc2ccccc2)N(C)C(=O)[C@H](C)N(C)C1=O [Myostatin_99_v303] ({CH2CO}-AAWY[X2]I[Sar][Phe(3-OCH2COOH)][Phe(4-COOH)]R[NMeF][X1][NMeA][NMeF][dC]-{Piperazinyl(4-CH2COOH)}; thioether N-15) | 39% | 67% | 100% | 100% | – | – | – | –
CCCCCCC[C@@H]1NC(=O)[C@H](Cc2ccccc2)N(C)C(=O)[C@H](CCCNC(=N)N)NC(=O)[C@H](Cc2ccc(C(=O)O)cc2)NC(=O)[C@H](Cc2cccc(OCC(=O)O)c2)NC(=O)CN(C)C(=O)[C@H]([C@@H](C)CC)NC(=O)[C@H](Cc2cccc(-c3ccccc3)c2)N(C)C(=O)[C@H](Cc2ccc(O)cc2)NC(=O)[C@H](Cc2c[nH]c3ccccc23)NC(=O)[C@H](C)NC(=O)[C@H](C)NC(=O)CSC[C@H](C(=O)N2CCN(CC(=O)O)CC2)NC(=O)[C@H](Cc2ccccc2)N(C)C(=O)[C@H](C)N(C)C1=O [Myostatin_99_v304] ({CH2CO}-AAWY[NMePhe(3-Ph)]I[Sar][Phe(3-OCH2COOH)][Phe(4-COOH)]R[NMeF][X1][NMeA][NMeF][dC]-{Piperazinyl(4-CH2COOH)}; thioether N-15) | 0% | 0% | 74% | 88% | – | – | – | –

Second part, the molecule after the results:

inhibition at 0.03 µM (GDF-11) | inhibition at 0.1 µM (GDF-11) | inhibition at 0.03 µM (Myostatin; [1]) | inhibition at 0.1 µM (Myostatin; [2]) | inhibition (GDF-11; [3]) | inhibition (GDF-11; [4]) | inhibition at 0.1 µM (Myostatin; [5]) | inhibition at 0.03 µM (Myostatin; [6]) | Compound
– | – | – | – | 0% | 0% | 94% | 80% | CCCCCCC[C@@H]1NC(=O)[C@H](Cc2ccccc2)N(C)C(=O)[C@H](CCCNC(=N)N)NC(=O)[C@H](Cc2ccc(C(=O)O)cc2)NC(=O)[C@H](Cc2cccc(OCC(=O)O)c2)NC(=O)CN(C)C(=O)[C@H]([C@@H](C)CC)NC(=O)[C@H](Cc2ccc3ccccc3c2)N(C)C(=O)[C@H](Cc2ccc(O)cc2)NC(=O)[C@H](Cc2c[nH]c3ccccc23)NC(=O)[C@H](C)NC(=O)[C@H](C)NC(=O)CSC[C@H](C(=O)N2CCN(CC(=O)O)CC2)NC(=O)[C@H](Cc2ccccc2)N(C)C(=O)[C@H](C)N(C)C1=O [Myostatin_99_v306] ({CH2CO}-AAWY[NMe2Nal]I[Sar][Phe(3-OCH2COOH)][Phe(4-COOH)]R[NMeF][X1][NMeA][NMeF][dC]-{Piperazinyl(4-CH2COOH)}; thioether N-15)
– | – | – | – | 0% | 12% | 98% | 89% | CCCCCCC[C@@H]1NC(=O)[C@H](Cc2ccccc2)N(C)C(=O)[C@H](CCCNC(=N)N)NC(=O)[C@H](Cc2ccc(C(=O)O)cc2)NC(=O)[C@H](Cc2cccc(OCC(=O)O)c2)NC(=O)CN(C)C(=O)[C@H]([C@@H](C)CC)NC(=O)[C@H](Cc2ccc(OC)cc2)N(C)C(=O)[C@H](Cc2ccc(O)cc2)NC(=O)[C@H](Cc2c[nH]c3ccccc23)NC(=O)[C@H](C)NC(=O)[C@H](C)NC(=O)CSC[C@H](C(=O)N2CCN(CC(=O)O)CC2)NC(=O)[C@H](Cc2ccccc2)N(C)C(=O)[C@H](C)N(C)C1=O [Myostatin_99_v307] ({CH2CO}-AAWY[NMeY](Me)I[Sar][Phe(3-OCH2COOH)][Phe(4-COOH)]R[NMeF][X1][NMeA][NMeF][dC]-{Piperazinyl(4-CH2COOH)}; thioether N-15)
– | – | – | – | 0% | 3% | 97% | 87% | CCCCCCC[C@@H]1NC(=O)[C@H](Cc2ccccc2)N(C)C(=O)[C@H](CCCNC(=N)N)NC(=O)[C@H](Cc2ccc(C(=O)O)cc2)NC(=O)[C@H](Cc2cccc(OCC(=O)O)c2)NC(=O)CN(C)C(=O)[C@H]([C@@H](C)CC)NC(=O)[C@H](Cc2ccc(Cl)cc2)N(C)C(=O)[C@H](Cc2ccc(O)cc2)NC(=O)[C@H](Cc2c[nH]c3ccccc23)NC(=O)[C@H](C)NC(=O)[C@H](C)NC(=O)CSC[C@H](C(=O)N2CCN(CC(=O)O)CC2)NC(=O)[C@H](Cc2ccccc2)N(C)C(=O)[C@H](C)N(C)C1=O [Myostatin_99_v308] ({CH2CO}-AAWY[NMePhe(4-Cl)]I[Sar][Phe(3-OCH2COOH)][Phe(4-COOH)]R[NMeF][X1][NMeA][NMeF][dC]-{Piperazinyl(4-CH2COOH)}; thioether N-15)
– | – | – | – | 0% | 5% | 100% | 99% | CCCCCCC[C@@H]1NC(=O)[C@H](Cc2ccccc2)N(C)C(=O)[C@H](CCCNC(=N)N)NC(=O)[C@H](Cc2ccc(C(=O)O)cc2)NC(=O)[C@H](Cc2cccc(OCC(=O)O)c2)NC(=O)CN(C)C(=O)[C@H]([C@@H](C)CC)NC(=O)[C@H](Cc2ccccc2)N(C)C(=O)[C@H](Cc2ccc(O)cc2)NC(=O)[C@H](Cc2c[nH]c3ccccc23)NC(=O)[C@H](C)NC(=O)[C@H](C)NC(=O)CSC[C@H](C(=O)N2CCN(CC(=O)O)CC2)NC(=O)[C@H](Cc2ccccc2)N(C)C(=O)[C@H](CCC(=O)O)N(C)C1=O [Myostatin_99_v311] ({CH2CO}-AAWY[NMeF]I[Sar][Phe(3-OCH2COOH)][Phe(4-COOH)]R[NMeF][X1][NMeE][NMeF][dC]-{Piperazinyl(4-CH2COOH)}; thioether N-15)
– | – | – | – | 0% | 6% | 100% | 98% | CCCCCCC[C@@H]1NC(=O)[C@H](Cc2ccccc2)N(C)C(=O)[C@H](CCCNC(=N)N)NC(=O)[C@H](Cc2ccc(C(=O)O)cc2)NC(=O)[C@H](Cc2cccc(OCC(=O)O)c2)NC(=O)CN(C)C(=O)[C@H]([C@@H](C)CC)NC(=O)[C@H](Cc2ccccc2)N(C)C(=O)[C@H](Cc2ccc(O)cc2)NC(=O)[C@H](Cc2cn(Cc3ccccc3)c3ccccc23)NC(=O)[C@H](C)NC(=O)[C@H](C)NC(=O)CSC[C@H](C(=O)N2CCN(CC(=O)O)CC2)NC(=O)[C@H](Cc2ccccc2)N(C)C(=O)[C@H](C)N(C)C1=O [Myostatin_99_v312] ({CH2CO}-AA[X10]Y[NMeF]I[Sar][Phe(3-OCH2COOH)][Phe(4-COOH)]R[NMeF][X1][NMeA][NMeF][dC]-{Piperazinyl(4-CH2COOH)}; thioether N-15)
